Assay results reported in patent publication US20080107623A1, “Inhibitors of Hepatitis C Virus” (Bristol-Myers Squibb Company, priority 2006, published 2008).

Experiments:
[1] = biological target: T1, HCV NS3/4A protease complex, BMS strain (UniProt P27958, species not given/STRAIN_BMS); assay: FRET peptide assay to monitor HCV NS3/4A proteolytic activity (BMS strain); assay type: biochemical, HCV genotype 1a; conditions: NS3/4A BMS strain; read-out: IC50 Activity Range
T1 construct: said of H77 and J4L6S, not expressly of BMS; These are given for the H77 and J4L6S constructs only
Text: HCV NS3 protease complexes, derived from the BMS strain, H77 strain or J4L6S strain, were generated, as described below. These purified recombinant proteins were generated for use in a homogeneous assay (see below) to provide an indication of how effective compounds of the present disclosure would be in inhibiting HCV NS3 proteolytic activity.
Serum from an HCV-infected patient was obtained from Dr. T. Wright, San Francisco Hospital. An engineered full-length cDNA (compliment deoxyribonucleic acid) template of the HCV genome (BMS strain) was constructed from DNA fragments obtained by reverse transcription-PCR (RT-PCR) of serum RNA (ribonucleic acid) and using primers selected on the basis of homology between other genotype 1a strains. From the determination of the entire genome sequence, a genotype 1a was assigned to the HCV isolate according to the classification of Simmonds et al. (See P Simmonds, K A Rose, S Graham, S W Chan, F McOmish, B C Dow, E A Follett, P L Yap and H Marsden, J. Clin. Microbiol., 31(6), 1493-1503 (1993)). […] The infectious clones, H77 (1a genotype) and J4L6S (1b genotype) were obtained from R. Purcell (NIH) and the sequences are published in Genbank (AAB67036, see Yanagi, M., Purcell, R. H., Emerson, S. U. and Bukh, J. Proc. Natl. Acad. Sci. U.S.A. 94(16),8738-8743 (1997); AF054247, see Yanagi, M., St Claire, M., Shapiro, M., Emerson, S. U., Purcell, R. H. and Bukh, J, Virology 244 (1), 161-172. (1998)).
NS3/4A protease complex-containing fractions were pooled and loaded on a desalting column Superdex-S200 pre-equilibrated with buffer D (25 mM HEPES, pH 7.5, 20% glycerol, 300 mM NaCl, 0.2% Triton X-100, 10 mM βME). Sample was loaded at a flow rate of 1 mL/min. NS3/4A protease complex-containing fractions were pooled and concentrated to approximately 0.5 mg/ml. The purity of the NS3/4A protease complexes, derived from the BMS, H77 and J4L6S strains, were judged to be greater than 90% by SDS-PAGE and mass spectrometry analyses. The enzyme was stored at −80° C., thawed on ice and diluted prior to use in assay buffer.
The purpose of this in vitro assay was to measure the inhibition of HCV NS3 protease complexes, derived from the BMS strain, H77 strain or J4L6S strain, as described above, by compounds of the present disclosure. This assay provides an indication of how effective compounds of the present disclosure would be in inhibiting HCV NS3 proteolytic activity.
In order to monitor HCV NS3/4A protease activity, an NS3/4A peptide substrate was used. The substrate was RET SI (Resonance Energy Transfer Depsipeptide Substrate; AnaSpec, Inc. cat #22991) (FRET peptide), described by Taliani et al. in Anal. Biochem. 240(2):60-67 (1996). […] The peptide also contains a fluorescence donor, EDANS, near one end of the peptide and an acceptor, DABCYL, near the other end. The fluorescence of the peptide is quenched by […] resonance energy transfer (RET) between the donor and the acceptor, but as the NS3 protease cleaves the peptide the products are released from RET quenching and the fluorescence of the donor becomes apparent.
The peptide substrate was incubated with one of the three recombinant NS3/4A protease complexes, in the absence or presence of a compound of the present disclosure. The inhibitory effects of a compound was determined by monitoring the formation of fluorescent reaction product in real time using a Cytofluor Series 4000. […]

[2] = tested on: HCV replicon (Renilla luciferase reporter) in HUH-7 cells; assay: HCV replicon luciferase reporter assay; assay type: cell-based, HCV strain 1b; conditions: Huh-7, 96 h, 4 days
Text: As a secondary assay, EC50 determinations from the replicon FRET assay were confirmed in a replicon luciferase reporter assay. Utilization of a replicon luciferase reporter assay was first described by Krieger et al (Krieger N, Lohmann V, and Bartenschlager R, J. Virol. 75(10):4614-4624 (2001)). The replicon construct described for our FRET assay was modified by inserting cDNA encoding a humanized form of the Renilla luciferase gene and a linker sequence fused directly to the 3′-end of the luciferase gene. This insert was introduced into the replicon construct using an AscI restriction site located in core, directly upstream of the neomycin marker gene. The adaptive mutation at position 1179 (serine to isoleucine) was also introduced (Blight K J, Kolykhalov, A A, Rice, C M, Science 290(5498):1972-1974). […] Following 4 days in a 37° C./5% CO2 incubator, cells were analyzed for Renilla Luciferase activity using the Promega Dual-Glo Luciferase Assay System. […] Plates were read on a Packard TopCount NXT using a luminescence program.
The percentage inhibition was calculated using the formula below: % control=average luciferase signal in experimental wells (+compound) average luciferase signal in DMSO control wells (− compound)
The values were graphed and analyzed using XLfit to obtain the EC50 value.

T1 sequence (P27958 1027-1657, change not shown, one chain of several): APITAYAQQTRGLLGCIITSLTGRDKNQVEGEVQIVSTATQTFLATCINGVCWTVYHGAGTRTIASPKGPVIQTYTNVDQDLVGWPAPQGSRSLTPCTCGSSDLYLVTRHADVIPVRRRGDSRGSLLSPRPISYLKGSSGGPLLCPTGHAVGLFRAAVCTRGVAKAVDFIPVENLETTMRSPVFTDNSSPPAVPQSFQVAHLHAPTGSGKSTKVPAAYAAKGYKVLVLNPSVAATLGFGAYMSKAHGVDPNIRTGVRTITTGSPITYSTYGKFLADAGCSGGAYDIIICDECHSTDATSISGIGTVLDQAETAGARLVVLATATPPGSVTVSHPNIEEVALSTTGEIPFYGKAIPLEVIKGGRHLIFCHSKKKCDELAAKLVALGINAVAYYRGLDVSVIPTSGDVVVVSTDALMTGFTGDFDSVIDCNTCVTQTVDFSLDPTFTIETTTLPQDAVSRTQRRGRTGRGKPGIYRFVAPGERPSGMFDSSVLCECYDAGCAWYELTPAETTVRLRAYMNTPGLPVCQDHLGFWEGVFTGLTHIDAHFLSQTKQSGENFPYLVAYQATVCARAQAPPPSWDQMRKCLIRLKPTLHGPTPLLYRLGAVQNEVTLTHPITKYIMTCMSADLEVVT

SMILES: COc1c(O[C@@H]2C[C@H]3C(=O)N[C@]4(C(=O)NS(=O)(=O)C5CC5)C[C@H]4/C=C\CCCCC[C@H](NC(=O)OC(C)(C)C)C(=O)N3C2)ccc2c(Cl)nccc12 [Compound 3]
- IC50 [1]: < 100 nM
- EC50 [2]: 5.5 nM
